This is an account of results in ChEMBL document CHEMBL5252654 (ACS Med Chem Lett, 2023).

Data set [1] relates to HeLa. The experiment in a line: Cytotoxicity against human HeLa cells assessed as reduction in cell viability after 72 hrs by MTT assay. In kind it is functional, cell-based.
For data set [2], the target named is T1, cGMP-inhibited 3',5'-cyclic phosphodiesterase 3A (Homo sapiens, UniProt Q14432). The experiment in a line: Inhibition of PDE3A (unknown origin).
Data set [3] deals with T2, cGMP-inhibited 3',5'-cyclic phosphodiesterase 3B (Homo sapiens, UniProt Q13370). The experiment in a line: Inhibition of PDE3B (unknown origin).
T2 sequence (Q13370 whole entry): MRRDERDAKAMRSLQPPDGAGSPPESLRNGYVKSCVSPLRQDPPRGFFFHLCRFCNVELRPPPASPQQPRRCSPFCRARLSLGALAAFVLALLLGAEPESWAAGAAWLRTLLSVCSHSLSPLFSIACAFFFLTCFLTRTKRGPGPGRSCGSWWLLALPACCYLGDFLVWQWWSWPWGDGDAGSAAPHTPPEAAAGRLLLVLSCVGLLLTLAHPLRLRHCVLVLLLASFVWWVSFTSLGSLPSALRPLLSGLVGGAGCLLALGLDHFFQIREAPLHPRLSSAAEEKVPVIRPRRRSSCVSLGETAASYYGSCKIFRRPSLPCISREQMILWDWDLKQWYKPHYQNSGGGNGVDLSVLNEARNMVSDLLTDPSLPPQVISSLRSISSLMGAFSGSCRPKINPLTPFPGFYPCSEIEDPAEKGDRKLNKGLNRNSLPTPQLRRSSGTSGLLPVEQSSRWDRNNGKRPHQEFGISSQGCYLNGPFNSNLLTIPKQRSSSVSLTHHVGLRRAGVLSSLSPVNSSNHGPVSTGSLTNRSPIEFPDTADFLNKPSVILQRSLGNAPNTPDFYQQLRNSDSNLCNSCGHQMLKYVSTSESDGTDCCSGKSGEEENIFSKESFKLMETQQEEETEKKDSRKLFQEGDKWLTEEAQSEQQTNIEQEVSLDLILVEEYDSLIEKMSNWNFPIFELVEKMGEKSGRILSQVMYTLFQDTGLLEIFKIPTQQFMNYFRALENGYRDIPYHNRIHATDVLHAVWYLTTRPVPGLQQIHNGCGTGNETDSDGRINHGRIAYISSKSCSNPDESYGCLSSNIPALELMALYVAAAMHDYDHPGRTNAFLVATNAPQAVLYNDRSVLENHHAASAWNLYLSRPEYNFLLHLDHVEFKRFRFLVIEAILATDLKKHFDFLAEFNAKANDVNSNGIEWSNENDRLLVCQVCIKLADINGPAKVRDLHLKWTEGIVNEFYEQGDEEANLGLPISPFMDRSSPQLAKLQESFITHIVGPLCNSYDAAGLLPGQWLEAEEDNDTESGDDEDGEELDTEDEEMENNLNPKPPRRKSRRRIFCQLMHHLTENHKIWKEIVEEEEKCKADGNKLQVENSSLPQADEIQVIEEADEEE
Data set [4] has as its target T1, cGMP-inhibited 3',5'-cyclic phosphodiesterase 3A. The experiment in a line: Binding affinity to PDE3A (unknown origin) assessed as dissociation constant.
The target in data set [5] is T3, Ribonuclease SLFN12 (Homo sapiens, UniProt Q8IYM2). The experiment in a line: Binding affinity to SLFN12 (unknown origin) assessed as dissociation constant.
T3 sequence (Q8IYM2 whole entry): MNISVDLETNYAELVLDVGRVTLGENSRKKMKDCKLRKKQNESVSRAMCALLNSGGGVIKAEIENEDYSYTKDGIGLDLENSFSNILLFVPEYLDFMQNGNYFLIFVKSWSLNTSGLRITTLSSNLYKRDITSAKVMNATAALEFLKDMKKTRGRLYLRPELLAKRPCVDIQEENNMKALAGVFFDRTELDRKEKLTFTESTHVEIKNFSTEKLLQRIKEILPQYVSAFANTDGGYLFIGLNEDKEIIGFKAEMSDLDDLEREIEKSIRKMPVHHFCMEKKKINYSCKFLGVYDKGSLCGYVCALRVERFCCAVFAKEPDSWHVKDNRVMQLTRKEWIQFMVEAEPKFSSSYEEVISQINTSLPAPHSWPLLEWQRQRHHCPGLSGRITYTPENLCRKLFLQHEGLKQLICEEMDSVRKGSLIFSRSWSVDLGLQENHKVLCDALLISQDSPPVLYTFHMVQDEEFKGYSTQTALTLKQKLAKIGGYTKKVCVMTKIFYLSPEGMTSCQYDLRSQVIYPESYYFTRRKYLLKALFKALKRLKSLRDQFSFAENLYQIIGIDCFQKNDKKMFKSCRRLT
Data set [6] addresses T2, cGMP-inhibited 3',5'-cyclic phosphodiesterase 3B. The experiment in a line: Binding affinity to human recombinant PDE3B expressed as Escherichia coli assessed as dissociation constant.
Data set [7] has as its target T3, Ribonuclease SLFN12. In words: Binding affinity to human recombinant SLFN12 expressed as Escherichia coli assessed as dissociation constant.
For a further data set, the target named is Phosphodiesterase 3 (Homo sapiens, UniProt Q14432+Q13370). The experiment in a line: Inhibition of human recombinant PDE3 expressed in Escherichia coli.
Data set [8] in a line: Antiproliferative activity against human QGY-7701 cells assessed as reduction in cell viability measured after 72 hrs by MTT assay. Format: functional, cell-based. The note with it: QGY7701, 72 h.
A short description of data set [9]: Antiplatelet aggregation activity in rabbit platelet-rich plasma assessed as reduction in ADP-induced aggregation incubated for 5 mins by aggregometry. In kind it is functional, cell-based. The following applies: Oryctolagus cuniculus.
Data set [10] is described as follows: Half life in Wistar rat at 0.29 to 4.86 mg/kg, po. In kind it is ADME, organism-based. The note with it: in vivo, dose 0.29-4.86 mg/kg.
Data set [11] in a line: Half life in Beagle dog at 0.29 to 4.86 mg/kg, po. Format: ADME, organism-based, Canis lupus familiaris. The following applies: in vivo, dose 0.29-4.86 mg/kg.
Data set [12] can be described thus: Inhibition of Rhesus monkey blood platelet aggregation at 4 mg/kg, po. The following applies: Macaca mulatta. In kind it is functional.
Data set [13] is described as follows: Inhibition of rhesus monkey blood platelet aggregation at 1 mg/kg, po. In kind it is functional. The note with it: Macaca mulatta.
The test system of a further data set is Oryctolagus cuniculus. The experiment in a line: Antithrombotic activity in New Zealand White biolaser-induced oral dosed rabbit model assessed as reduction in thrombus mass. In kind it is functional.
Data set [14] can be described thus: Antiplatelet aggregation activity in rabbit platelet rich plasma assessed as reduction in ADP-induced platelet aggregation. Format: functional, cell-based. The note with it: Oryctolagus cuniculus.
Data set [15] can be described thus: Antiplatelet activity in rabbit platelet rich plasma assessed as inhibition of collagen-induced platelet aggregation. The note with it: Oryctolagus cuniculus. In kind it is functional, cell-based.
A short description of data set [16]: Antiplatelet activity in rabbit platelet rich plasma assessed as inhibition of thrombin-induced platelet aggregation. In kind it is functional, cell-based. The following applies: Oryctolagus cuniculus.
Data set [17] is described as follows: Antiplatelet activity in rabbit platelet rich plasma assessed as inhibition of arachidonic acid-induced platelet aggregation. Format: functional, cell-based. The note with it: Oryctolagus cuniculus.
Data set [18] can be described thus: Antiplatelet activity in rabbit platelet rich plasma assessed as inhibition of antigen-antibody-induced platelet aggregation. Format: functional, cell-based. The note with it: Oryctolagus cuniculus.
Data set [19] can be described thus: Antiplatelet aggregation activity in Sprague-Dawley rat platelet rich plasma assessed as reduction in ADP-induced platelet aggregation. In kind it is functional, cell-based.
The nature of data set [20]: Antiplatelet aggregation activity in Sprague-Dawley rat platelet rich plasma assessed as reduction in collagen-induced platelet aggregation. In kind it is functional, cell-based.
Data set [21] can be described thus: Antiplatelet aggregation activity in rhesus monkey platelet rich plasma assessed as reduction in ADP-induced platelet aggregation. Format: functional, cell-based. The note with it: Macaca mulatta.
Data set [22] is described as follows: Antiplatelet aggregation activity in rhesus monkey platelet rich plasma assessed as reduction in collagen-induced platelet aggregation. Format: functional, cell-based. The following applies: Macaca mulatta.
Data set [23] is described as follows: Antiplatelet aggregation activity in dog rich plasma assessed as reduction in ADP-induced platelet aggregation. Format: functional, cell-based. The following applies: Canis lupus familiaris.
Data set [24] can be described thus: Antiplatelet aggregation activity in human rich plasma assessed as reduction in ADP-induced platelet aggregation. Format: functional, cell-based.
Data set [25] is described as follows: Antiplatelet aggregation activity in human rich plasma assessed as reduction in collagen-induced platelet aggregation. Format: functional, cell-based.
Data set [26] is described as follows: Antiplatelet activity against ADP-induced Wistar rat platelet aggregation assessed as inhibition of platelet aggregation. Format: functional, cell-based.
The test system of data set [27] is HeLa. In words: Antiproliferative activity against human HeLa cells assessed as reduction in cell viability measured after 72 hrs by MTT assay. In kind it is functional, cell-based.
The subject of data set [28] is HeLa. The experiment in a line: Antiproliferative activity against human HeLa cells assessed as reduction in cell growth. Format: functional, cell-based.

T1 sequence (Q14432 whole entry): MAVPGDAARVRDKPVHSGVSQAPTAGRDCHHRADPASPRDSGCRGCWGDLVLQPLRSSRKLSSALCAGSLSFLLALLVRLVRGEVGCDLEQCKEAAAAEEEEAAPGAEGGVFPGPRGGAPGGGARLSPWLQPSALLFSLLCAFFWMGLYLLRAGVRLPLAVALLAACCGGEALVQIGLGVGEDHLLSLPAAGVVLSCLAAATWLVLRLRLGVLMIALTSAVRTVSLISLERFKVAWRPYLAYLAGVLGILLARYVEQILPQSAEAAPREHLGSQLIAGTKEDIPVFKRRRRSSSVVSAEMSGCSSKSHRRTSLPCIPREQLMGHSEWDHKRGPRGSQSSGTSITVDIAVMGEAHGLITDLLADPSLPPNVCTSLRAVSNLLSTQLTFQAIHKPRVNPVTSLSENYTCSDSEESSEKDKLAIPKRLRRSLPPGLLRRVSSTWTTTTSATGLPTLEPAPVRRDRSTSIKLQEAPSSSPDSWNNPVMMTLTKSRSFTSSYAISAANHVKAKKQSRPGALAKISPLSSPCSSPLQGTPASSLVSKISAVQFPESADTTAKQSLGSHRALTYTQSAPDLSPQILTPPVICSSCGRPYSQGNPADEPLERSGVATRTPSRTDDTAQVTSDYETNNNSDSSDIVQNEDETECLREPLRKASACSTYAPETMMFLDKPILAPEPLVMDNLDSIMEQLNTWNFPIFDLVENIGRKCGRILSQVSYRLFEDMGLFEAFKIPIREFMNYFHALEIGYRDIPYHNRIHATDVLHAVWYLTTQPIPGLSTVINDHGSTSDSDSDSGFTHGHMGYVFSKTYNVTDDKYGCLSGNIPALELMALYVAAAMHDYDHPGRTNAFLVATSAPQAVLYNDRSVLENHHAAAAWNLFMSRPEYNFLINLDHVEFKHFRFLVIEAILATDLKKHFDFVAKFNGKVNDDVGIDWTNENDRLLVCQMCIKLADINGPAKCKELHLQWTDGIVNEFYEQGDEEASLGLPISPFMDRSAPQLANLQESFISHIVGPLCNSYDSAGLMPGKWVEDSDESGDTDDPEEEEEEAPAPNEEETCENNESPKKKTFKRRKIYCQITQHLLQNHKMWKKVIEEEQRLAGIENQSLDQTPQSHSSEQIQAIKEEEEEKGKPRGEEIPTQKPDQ

Consider `N#Cc1ccc(-c2ccc3c(c2Cl)CN2CC(=O)NC2=N3)cc1`, for which the EC50 with HeLa [1] was 2.38 nM.
The same measure, in the same setting: under `Cc1ccccc1-c1ccc2c(c1Cl)CN1CC(=O)NC1=N2` stands 1.09 nM; under `Cc1cccc(-c2ccc3c(c2Cl)CN2CC(=O)NC2=N3)c1`, 1.37 nM.
The same measure, in the same setting: under `C[C@@H]1OC(=O)NN=C1c1ccc(-c2ccc(F)cc2)c(C(F)(F)F)c1` stands 1.3 nM.
`CCN(CC)c1ccc(C2=NNC(=O)C[C@H]2C)cc1[N+](=O)[O-]`: the IC50 in [2] worked out at 25 nM; in data set [3] it was 100 nM. The Kd in [4] turned out to be 40 nM; on Ribonuclease SLFN12 [5] it was 870 nM; in data set [6], 320 nM; at Ribonuclease SLFN12 [7] it was 65 nM.
Regarding `O=C1CN2Cc3c(ccc(-c4ccc(Cl)cc4)c3Cl)N=C2N1`, in the data set on HeLa [1], the EC50 was 1.8 nM.
With `CCc1ccc(-c2ccc3c(c2Cl)CN2CC(=O)NC2=N3)cc1`, the EC50 with HeLa [1] is 1.8 nM.
Turning to `O=C1CCc2cc(OCCCCc3nnnn3C3CCCCC3)ccc2N1` [CILOSTAZOL], the IC50 at Phosphodiesterase 3 is on record as 200 nM.
For the compound `C[C@@H]1C(=O)NC2=Nc3cccc(Cl)c3CN21` [QUAZINONE], the IC50 at Phosphodiesterase 3 is 580 nM.
Take `COc1cc(-c2ccc(=O)[nH]n2)ccc1OC(F)F` [ZARDAVERINE]: in [8], the EC50 was 56.8 nM.
For `O=C1CN2Cc3c(ccc(Cl)c3Cl)N=C2N1` [ANAGRELIDE], the EC50 in data set [9] was less than 1 µg/mL; in data set [14], 1200 nM; in data set [15], 310 nM; in [16], 700 nM; in [17], 390 nM; in data set [18] it was 740 nM. Also, the EC50 in [19] was found to be 270 nM; in data set [20], 150 nM; in data set [21], 500 nM; in data set [22], 80 nM; in data set [23], 310 nM; in data set [24], 400 nM. The EC50 in data set [25] worked out at 80 nM; in [26], 27 nM; in the data set on HeLa [27] it was 5.12 nM; in the data set on HeLa [28], 4 nM; in the data set on HeLa [1], 6.67 nM. Also, the half-life in data set [10] was 7 h; in [11] it was 19 h. Moreover, at 4 mg/kg the inhibition in vivo in data set [12] was 47%. The same compound returned an inhibition in vivo at 1 mg/kg in data set [13] of 24%. In addition, the median effective dose (ED50) in the data set on Oryctolagus cuniculus came out at 2.5 mg/kg.
`CC1CC(=O)NN=C1c1ccc2c(c1)CCC(=O)N2C` (stereo unspecified): on Phosphodiesterase 3, the IC50 is reported as 90 nM.
On to `C[C@]12CC[C@@H]3c4ccc(O)cc4CC[C@H]3[C@@H]1CC[C@@H]2O` [ESTRADIOL], for which the EC50 in the data set with HeLa [1] was 0.7 nM.
On the same count and under the same terms, under `O=C1CN2Cc3c(ccc(-c4ccccc4)c3Cl)N=C2N1` stands 0.56 nM.
On to `O=C1CN2Cc3c(ccc(-c4ccsc4)c3Cl)N=C2N1`, for which the EC50 in the data set with HeLa [1] was found to be 1.77 nM.
Consider `O=C1CN2Cc3c(Cl)cccc3N=C2N1`, for which, in the data set on HeLa [1], the EC50 is 42.9 nM.
On the same count and under the same terms, then `O=C1CN2Cc3c(ccc(-c4ccncc4)c3Cl)N=C2N1`, with 6.22 nM; and `O=C1CN2Cc3c(ccc(-c4ccoc4)c3Cl)N=C2N1`, with 0.6 nM; and `O=C1CN2Cc3c(cc(Cl)c(-c4ccccc4)c3Cl)N=C2N1`, with 1.14 nM.
The same measure, in the same setting: then `O=C1CN2Cc3c(ccc(F)c3Cl)N=C2N1`, with 34.2 nM.
Consider `O=C1CN2Cc3c(ccc(-c4ccc(O)cc4)c3Cl)N=C2N1`, for which the EC50 in the data set with HeLa [1] is 12.3 nM.
Still for that read-out and setting: under `Cc1ccc(-c2ccc3c(c2Cl)CN2CC(=O)NC2=N3)cc1` stands 0.3 nM.
For `O=C1NC2=Nc3ccc(Cl)c(Cl)c3CN2C1O` (stereo unspecified), the IC50 on Phosphodiesterase 3 is listed as 32 nM. Besides, the EC50 in data set [26] was 48 nM.
`O=C1CN2Cc3c(ccc(Br)c3Cl)N=C2N1`: the EC50 in the data set on HeLa [1] worked out at 2.53 nM.
